Results from patent US20220192935A1, “COMPOSITION FOR A TOPICAL APPLICATION ON THE SKIN” (Biodermic Health & Beauty GmbH & Co. KG, priority 2019, published 2022).

Tested on: organisms of the skin flora (Corynebacterium minutissimum, Streptococcus mitis, Staphylococcus epidermidis, Staphylococcus galinarum, Propionibacterium acnes …)
Assay: Investigation of single ingredients for influence on the growth of the organisms of the skin flora
Type: cell-based
Details: single ingredient, result in words
From the text: The surprising positive effect of the above-described substances or substance groups on the growth of the microorganisms of the skin flora has been confirmed by investigations on microorganisms of the skin flora. Specifically, this involved analyzing the growth of the following species: Corynebacterium minutissimum, Streptococcus mitis, Staphylococcus epidermidis, Staphylococcus galinarum, Propionibacterium acnes, and Malassezia furfur, Malassezia sympodialis, Malassezia globosa and Malassezia restricta. The positive effect can be attributed to the fact that the microorganisms present on the skin cannot make use of the substances investigated. […] Investigations on Corynebacterium minutissimum, Streptococcus mitis, Staphylococcus epidermidis, Staphylococcus galinarum, Propionibacterium acnes, and Malassezia furfur, Malassezia sympodialis, Malassezia globosa and Malassezia restricta have confirmed this effect. The positive effect of these emulsifiers in terms of their influence on the growth of organisms of the skin flora has been confirmed by investigations on Corynebacterium minutissimum, Streptococcus mitis, Staphylococcus epidermidis, Staphylococcus galinarum, Propionibacterium acnes, and Malassezia furfur, Malassezia sympodialis, Malassezia globosa and Malassezia restricta. […]

## Caprylic/Capric Triglyceride
  influence on the growth of the organisms of the skin flora: No growth-promoting influence was detected
